This is an account of results in PubChem BioAssay (NCI).

Structures are written as SMILES. “And” between values parts separate entries of the source, which are not always exact repeats. Identical values can stand only once.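 Five compound concentrations were applied to cells in 96-well plates for 48 hours; endpoints were derived by simple linear interpolation of the resulting dose-response curve. Abbreviation: GI50, concentration required for 50% inhibition of growth. The concentration for full growth arrest is given as TGI.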

Among the test systems are SR leukemia; SNB-19 CNS; ACHN renal; KM20L2 colon; A498 renal; OVCAR-8 ovarian; SF-268 CNS; M19-MEL melanoma; U251 CNS; XF 498 CNS; DMS 273 small cell lung; MDA-MB-435; MDA-N.
What all share (experiment): DTP human tumour cell line panel, 48 h

In the case of `O=C(/C=C/CC(O)(c1ccccc1)c1ccccc1)Nc1ccccc1Cl`, the TGI in the assay on SR leukemia, in the assay on SNB-19 CNS, in the assay with ACHN renal, in the assay with KM20L2 colon, in the assay with A498 renal and in the assay on OVCAR-8 ovarian was over 100 µM each time. In addition, the TGI with SF-268 CNS, in the assay on M19-MEL melanoma and in the assay with U251 CNS was over 100 µM each time.
With `CCc1nc2c([nH]1)C(=O)c1ccccc1C2=O`, the TGI in the assay with XF 498 CNS is 67.1 µM; with SR leukemia, over 100 µM; with SNB-19 CNS it was over 100 µM; with DMS 273 small cell lung it was over 100 µM; in the assay on ACHN renal, over 100 µM; with A498 renal it was over 100 µM. The TGI is over 100 µM with OVCAR-8 ovarian, over 100 µM with SF-268 CNS, 31.8 µM in the assay with M19-MEL melanoma and over 100 µM in the assay on U251 CNS.
For the compound `O=c1ccn([C@@H]2C=C(CO)[C@@H](O)[C@H]2O)c(=O)[nH]1`, the TGI in the assay with XF 498 CNS was under 0.0625 µM; with SNB-19 CNS it was over 625 µM; in the assay on DMS 273 small cell lung, over 625 µM; in the assay with KM20L2 colon, over 625 µM; with OVCAR-8 ovarian, over 625 µM; in the assay with SF-268 CNS, over 625 µM. In the assay with U251 CNS, the TGI was over 625 µM.
With `O=C(CCl)Nc1ccc(C(=O)N/N=C/c2ccc(Cl)cc2)cc1`, the TGI in the assay with XF 498 CNS is 3 µM; with SR leukemia, 3.93 µM; in the assay on SNB-19 CNS it was 5.74 µM and 20.1 µM; with DMS 273 small cell lung it was 4.12 µM; in the assay on ACHN renal, 6.57 µM and 9.22 µM; in the assay on KM20L2 colon, 27.4 µM. For the same compound, the TGI was 3.27 µM and 21.7 µM with MDA-MB-435; 4.85 µM and 26.7 µM in the assay on A498 renal; 5.29 µM and 6.97 µM in the assay on OVCAR-8 ovarian; 3.69 µM and 24.3 µM in the assay with MDA-N; 3.88 µM and 6.85 µM in the assay with SF-268 CNS; 25.6 µM in the assay on M19-MEL melanoma. Moreover, the TGI in the assay on U251 CNS is 3.61 µM and 3.24 µM. For the same compound, the GI50 was 3.09 µM in the assay on SNB-19 CNS; 2.92 µM in the assay with ACHN renal; 9.67 µM in the assay with MDA-MB-435; 13 µM with A498 renal; 11 µM in the assay on MDA-N; 1.81 µM in the assay on SF-268 CNS.
In the case of `CC(Br)CN(CC(C)Br)c1ccc2c(c1)Cc1ccccc1-2` (stereo unspecified), the TGI with SR leukemia came to 14.9 µM; with SNB-19 CNS, 27.9 µM; with ACHN renal, 19.5 µM; with MDA-MB-435, 28 µM; with A498 renal, 26 µM; in the assay on OVCAR-8 ovarian, 25.2 µM. Moreover, the TGI with MDA-N was found to be 30.7 µM; in the assay with SF-268 CNS, 23.3 µM; in the assay on U251 CNS it was 22.7 µM.
As for `O=C1c2cccnc2C(=O)c2c1nc1ccccc1c2-c1ccc2c3c(nc4ccccc42)C(=O)c2cccnc2-c13`, the TGI in the assay with SR leukemia was determined as 0.34 µM; in the assay with SNB-19 CNS, 7.92 µM; in the assay on ACHN renal, 4.1 µM; in the assay on MDA-MB-435, 5.58 µM; in the assay with A498 renal, 6.05 µM; in the assay with OVCAR-8 ovarian, 2.59 µM. The TGI was 8.82 µM in the assay with MDA-N, 6.46 µM in the assay with SF-268 CNS and 9.01 µM in the assay on U251 CNS.
In the case of `CSc1ncnc2c1cnn2Cc1cn(COCC(O)CO)nn1` (stereo unspecified), the TGI with SR leukemia, in the assay with SNB-19 CNS, in the assay on ACHN renal, in the assay with MDA-MB-435, in the assay on A498 renal and with OVCAR-8 ovarian was over 100 µM throughout. For the same compound, the TGI was over 100 µM with MDA-N, 52.7 µM with SF-268 CNS and over 100 µM in the assay on U251 CNS.
Take `COc1cc2c3cc1Oc1cc(ccc1O)C[C@@H]1c4c(cc(OC)c(O)c4Oc4ccc(cc4)C[C@@H]3[N+](C)(C)CC2)CC[N+]1(C)C`: the TGI with SR leukemia, in the assay on SNB-19 CNS, with ACHN renal, in the assay on MDA-MB-435, with A498 renal and in the assay on OVCAR-8 ovarian was over 100 µM each time. For the same compound, the TGI in the assay on MDA-N, in the assay with SF-268 CNS and in the assay on U251 CNS was over 100 µM each time.
